Laboratory results: patent US20170305943A1, “COMPOUNDS FOR THE TREATMENT OF BACTERIAL INFECTIONS” (priority 2014, published 2017)
≈ marks a conversion by molar mass, not a printed value.

Key:
Test in all cases: Bacterial Assay: Determination of Antibacterial Activity (MIC, broth microdilution or agar dilution)
Assay type in all cases: cell-based
[1] = tested on: Clostridium difficile (Isolate ID 027-01); settings: Clostridioides difficile, 48 h, read-out: MIC (μg/mL) C. difficile (027-01)
Procedure, shortened: (§1)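 MICs were set by CLSI broth microdilution or agar dilution for anaerobes, read visually after 48 hours at 37° C. under anaerobic gas packs. Medium was reinforced clostridial medium with 0.1% defibrinated horse blood; values are binned as A ≦1.01, B >1.0-4.0, C >4.0-16 μg/mL.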

[2] = tested on: Clostridium difficile (Isolate ID ATCC 9689); settings: Clostridioides difficile, ATCC9689, 48 h, read-out: C. difficile MIC Activity Range
Procedure, shortened: as §1

[3] = tested on: Clostridium difficile (Isolate ID BI-9); settings: Clostridioides difficile, 48 h, read-out: MIC (μg/mL) C. difficile (B-I9)
Procedure, shortened: as §1

| SMILES | MIC [1] [µg/mL] | MIC [2] [µg/mL] | MIC [3] [µg/mL] |
| --- | --- | --- | --- |
| NC(=O)c1c(F)ccc(OCc2ccnc(-c3ccc(Cl)cc3)n2)c1F [Compound 192, 3-{[2-(4-chlorophenyl)pyrimidin-4-yl]methoxy}-2,6-difluorobenzamide] | 1 (≈ 2.66 µM) | < 1.01 | 1 (≈ 2.66 µM) |
| NC(=O)c1c(F)ccc(OCc2cccc(-c3ccc(Cl)cc3)n2)c1F [Compound 194, 3-{[6-(4-chlorophenyl)pyridin-2-yl]methoxy}-2,6-difluorobenzamide] | 0.5 (≈ 1.33 µM) | < 1.01 | 0.5 (≈ 1.33 µM) |
| NC(=O)c1c(F)ccc(OCc2nc(C#Cc3cccc(Cl)c3)cs2)c1F [Compound 198, 3-({4-[(3-chlorophenyl)ethynyl]-1,3-thiazol-2-yl}methoxy)-2,6-difluorobenzamide] | 0.12 (≈ 0.296 µM) | < 1.01 | 0.25 (≈ 0.618 µM) |
| NC(=O)c1c(F)ccc(OCc2nc(-c3ccc(Cl)s3)cs2)c1F [Compound 203, 3-{[4-(5-chlorothiophen-2-yl)-1,3-thiazol-2-yl]methoxy}-2,6-difluorobenzamide] | 0.5 (≈ 1.29 µM) | < 1.01 | 1 (≈ 2.59 µM) |
| CNC(=N)c1cccc(OCc2nc(-c3ccc(Cl)cc3)ns2)c1F [Compound 205, 3-{[3-(4-chlorophenyl)-1,2,4-thiadiazol-5-yl]methoxy}-2-fluoro-N-methylbenzenecarboximidamide] | 16 (≈ 42.5 µM) | 4 to 16 (≈ 10.6 to 42.5 µM) | 16 (≈ 42.5 µM) |
| COc1ncc(-c2csc(COc3ccc(F)c(C(N)=O)c3F)n2)s1 [Compound 207, 2,6-difluoro-3-[(2′-methoxy-4,5′-bi-1,3-thiazol-2-yl)methoxy]benzamide] | 4 (≈ 10.4 µM) | 1 to 4 (≈ 2.61 to 10.4 µM) | 4 (≈ 10.4 µM) |
| NC(=O)c1c(F)ccc(OCc2nc(-c3ccc(C(F)(F)F)cc3)c(Br)o2)c1F [Compound 208, 3-({5-bromo-4-[4-(trifluoromethyl)phenyl]-1,3-oxazol-2-yl}methoxy)-2,6-difluorobenzamide] | 0.06 (≈ 0.126 µM) | < 1.01 | 0.06 (≈ 0.126 µM) |
| NC(=O)c1c(F)ccc(OCc2nc(-c3ccc(OC(F)(F)F)cc3)c(Br)o2)c1F [Compound 209, 3-({5-bromo-4-[4-(trifluoromethoxy)phenyl]-1,3-oxazol-2-yl}methoxy)-2,6-difluorobenzamide] | 0.12 (≈ 0.243 µM) | < 1.01 | 0.25 (≈ 0.507 µM) |
| NC(=O)c1c(F)ccc(OCc2nc(-c3ccc(OC(F)(F)F)cc3)c(C(F)(F)F)o2)c1F [Compound 213, 2,6-difluoro-3-({4-[4-(trifluoromethoxy)phenyl]-5-(trifluoromethyl)-1,3-oxazol-2-yl}methoxy)benzamide] | 0.12 (≈ 0.249 µM) | < 1.01 | 0.25 (≈ 0.518 µM) |
